Values of other authors, collected in patent US20100112724A1, “METHOD OF DETERMINATION OF PROTEIN LIGAND BINDING AND OF THE MOST PROBABLE LIGAND POSE IN PROTEIN BINDING SITE” (priority 2007, published 2010).

System: protein of the protein-ligand complex (pdb code)
Settings: experimentally known binding affinity of test and training protein-ligand complexes selected from PDB, structures described in publications [7, 8, 9]

Row | Structure (SMILES) | ΔG, kcal/mol (free energy of ligand-protein binding) [kcal/mol]
1 | C[C@]12CCC(=O)C[C@H]1CC[C@@H]1[C@@H]2CC[C@]2(C)C(=O)CC[C@@H]12 [1DBK] | -11
2 | CC(C)C[C@H](NP(=O)(O)O)C(N)=O [2TMN] | -8
3 | CC(=O)N[C@H]1[C@H]([C@@H](O)[C@@H](O)CO)O[C@@](O)(C(=O)O)C[C@@H]1O [1NSC] | -4.1
4 | C[C@H]1O[C@H](O)[C@H](O)[C@@H](O)[C@H]1O [1ABF] | -7.3
5 | C[C@H](NC(=O)[C@@H](CS)Cc1ccccc1)C(=O)NCC(N)=O [1JAO] | -8.1
6 | Nc1nc(=O)c2nc(CNc3ccc(C(=O)N[C@@H](CCC(=O)O)C(=O)O)cc3)cnc2[nH]1 [1DHF] | -10.1
7 | O=C(O)[C@H](O)[C@@H](O)[C@H](O)[C@H](O)COP(=O)(O)O [1PGP] | -7.8
8 | OC[C@H]1O[C@H](O)[C@H](O)[C@@H](O)[C@H]1O [5ABP] | -8.9
9 | NCCc1ccccc1 [1TNJ] | -2.7
10 | C[C@H]1O[C@H](O)[C@H](O)[C@@H](O)[C@H]1O [7ABP] | -8.7
11 | Nc1ccnc2c1ncn2[C@@H]1O[C@H](CO)[C@@H](O)[C@H]1O [1ADD] | -9.2
12 | CC(=O)N[C@H]1[C@H]([C@H](O)[C@H](O)CO)OC(C(=O)O)=C[C@@H]1O [1NNB] | -7.2
13 | CCN(CC)C(=O)[C@@H]1OC(C(=O)O)=C[C@H](N)[C@H]1NC(C)=O [2QWG] | -11.5
14 | OC[C@H]1O[C@@H](O)[C@H](O)[C@@H]1O [2DRI] | -8.9
15 | N[C@H]1C[C@@H]1c1ccccc1 [1TNL] | -2.6
16 | CC(=O)N[C@H]1[C@H]([C@H](O)[C@H](O)CO)O[C@@](O)(C(=O)O)C[C@@H]1O [2QWB] | -3.7
17 | CCN[C@H]1C[C@H](C)S(=O)(=O)c2sc(S(N)(=O)=O)cc21 [1CIL] | -12.9
18 | O[C@@H]1[C@@H](O)[C@@H](O)CO[C@H]1O [1ABE] | -9.2

Row | Structure (SMILES) | ΔG, kcal/mol (free energy of ligand-protein binding) [kcal/mol]
19 | CC(=O)N[C@H]1[C@H]([C@H](O)[C@H](O)CO)OC(C(=O)O)=C[C@@H]1O [2QWC] | -4.8
20 | OC[C@H]1O[C@@H](O)[C@H](O)[C@@H](O)[C@H]1O [9ABP] | -10.7
21 | NCCCCc1ccccc1 [1TNI] | -2.3
22 | NS(=O)(=O)c1ccc(S(=O)(=O)NCc2cccs2)s1 [1BNW] | -12.9
23 | C[C@H]1O[C@@H](O)[C@H](O)[C@@H](O)[C@H]1O [1APB] | -7.8
24 | CN[C@H]1C[C@H](C)S(=O)(=O)c2sc(S(N)(=O)=O)cc21 [1CIN] | -11.9
25 | O=C(O)COP(=O)(O)O [2YPI] | -6.6
26 | N=C(N)c1ccccc1 [1DWB] | -4
27 | O=C(O)[C@@H](O)Cc1ccccc1 [2CTC] | -5.3
28 | CNC(=O)[C@H](Cc1ccccc1)NC(=O)[C@@H](CC(=O)NO)CC(C)C [1MNC] | -12.6
29 | CC(=O)N[C@H]1[C@H]([C@H](O)[C@H](O)CO)OC(C(=O)O)=C[C@@H]1N [2QWD] | -6.6
30 | N=C(N)c1ccccc1 [3PTB] | -6.3
31 | O=C(O)C[C@H](NC(=O)CP(=O)(O)O)C(=O)O [8ATC] | -10.3
32 | CC(=O)N[C@H]1[C@H]([C@H](O)[C@H](O)CO)OC(C(=O)O)=C[C@@H]1N=C(N)N [2QWE] | -10.2
33 | CC(=O)[C@H]1CC[C@H]2[C@@H]3CC[C@H]4C[C@@H](OC(=O)CCC(=O)O)CC[C@]4(C)[C@H]3CC[C@]12C [2DBL] | -11.9
34 | CC1=C(/C=C/C(C)=C/C=C/C(C)=C/CO)C(C)(C)CCC1 [1BRP] | -9.3
35 | O=C(O)C[C@@H](Cc1ccccc1)C(=O)O [1CBX] | -8.7

Continued, values first:

Row | ΔG, kcal/mol (free energy of ligand-protein binding) [kcal/mol] | Structure (SMILES)
36 | -10.2 | OC[C@H]1O[C@@H](O)[C@H](O)[C@@H](O)[C@@H]1O [2GBP]
37 | -4.4 | O=P(O)(O)OC[C@@H](O)CO [6TIM]
38 | -9.8 | N[C@@H](Cc1c[nH]cn1)C(=O)O [1HSL]
39 | -7.1 | Nc1nc2c(ncn2[C@@H]2O[C@H](CO)[C@@H](O)[C@H]2OP(=O)(O)O)c(=O)[nH]1 [1RNT]
40 | -9.3 | O[C@@H]1[C@@H](O)[C@@H](O)OC[C@@H]1O [1BAP]
41 | -14.2 | COc1cccc(N2CCc3cc(S(N)(=O)=O)sc3S2(=O)=O)c1 [1BNN]
42 | -7.4 | O=C(COP(=O)(O)O)NO [7TIM]
43 | -13.8 | NS(=O)(=O)c1cc2c(s1)S(=O)(=O)N(Cc1cccs1)C[C@@H]2O [1BNU]
44 | -7.3 | OC[C@H]1O[C@H](O[C@H]2[C@H](O)[C@@H](O)[C@H](O)O[C@@H]2CO)[C@H](O)[C@@H](O)[C@@H]1O [1ANF]
45 | -12 | C[C@H]1C[C@H](N)c2cc(S(N)(=O)=O)sc2S1(=O)=O [1CIM]
46 | -2 | NCCCc1ccccc1 [1TNK]
47 | -4 | NCC1CCCCC1 [1TNG]
48 | -8.4 | Cc1ccc(S(=O)(=O)N[C@@H](Cc2cccc(C(=N)N)c2)C(=O)N2CCCCC2)cc1 [1PPH]
49 | -13.9 | COc1ccc(N2C[C@H](O)c3cc(S(N)(=O)=O)sc3S2(=O)=O)cc1 [1BNT]
50 | -9.2 | CC1=C(/C=C/C(C)=C/C=C/C(C)=C/CO)C(C)(C)CCC1 [1RBP]
51 | -10.7 | OC[C@H]1O[C@H](O)[C@H](O)[C@@H](O)[C@H]1O [8ABP]
52 | -14.2 | CN[C@H]1CN(c2cccc(OC)c2)S(=O)(=O)c2sc(S(N)(=O)=O)cc21 [1BNM]
53 | -13.5 | CCN[C@H]1CN(CCOC)S(=O)(=O)c2sc(S(N)(=O)=O)cc21 [1BNQ]
